According to PubChem BioAssay (NCI):
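Dose response: 5 concentrations. Exposure: 48 h. Format: 96-well plates. Endpoint: linear interpolation; highest concentration if not reached. GI50 = concentration required for 50% inhibition of growth. At the TGI there is no net growth.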

What was measured:
Test in all cases: NCI anticancer screen, dose series, 48 h
SN12C renal = tested on: SN12C renal
UO-31 renal = tested on: UO-31 renal
A549 NSCLC = tested on: A549 NSCLC
MDA-MB-435 = tested on: MDA-MB-435
PC-3 prostate = tested on: PC-3 prostate
HT29 colon = tested on: HT29 colon
MALME-3M melanoma = tested on: MALME-3M melanoma
A498 renal = tested on: A498 renal
MOLT-4 leukemia = tested on: MOLT-4 leukemia
SR leukemia = tested on: SR leukemia
NCI-H226 lung = tested on: NCI-H226 lung
HS 578T breast = tested on: HS 578T breast
SF-295 CNS = tested on: SF-295 CNS
HCC-2998 colon = tested on: HCC-2998 colon
HOP-62 NSCLC = tested on: HOP-62 NSCLC
UACC-257 melanoma = tested on: UACC-257 melanoma
EKVX NSCLC = tested on: EKVX NSCLC
SNB-75 CNS = tested on: SNB-75 CNS
NCI/ADR-RES ovarian = tested on: NCI/ADR-RES ovarian
CCRF-CEM leukemia = tested on: CCRF-CEM leukemia
M14 melanoma = tested on: M14 melanoma
786-0 renal = tested on: 786-0 renal
HL-60(TB) leukemia = tested on: HL-60(TB) leukemia
MCF7 breast = tested on: MCF7 breast
HCT-116 colon = tested on: HCT-116 colon
BT-549 breast = tested on: BT-549 breast
HCT-15 colon = tested on: HCT-15 colon
ACHN renal = tested on: ACHN renal
SF-539 CNS = tested on: SF-539 CNS
TK-10 renal = tested on: TK-10 renal
CAKI-1 renal = tested on: CAKI-1 renal
UACC-62 melanoma = tested on: UACC-62 melanoma
IGROV1 ovarian = tested on: IGROV1 ovarian
U251 CNS = tested on: U251 CNS
NCI-H460 lung = tested on: NCI-H460 lung
OVCAR-4 ovarian = tested on: OVCAR-4 ovarian
MDA-MB-231 breast = tested on: MDA-MB-231 breast
SF-268 CNS = tested on: SF-268 CNS
OVCAR-3 ovarian = tested on: OVCAR-3 ovarian
COLO 205 colon = tested on: COLO 205 colon
KM12 colon = tested on: KM12 colon
OVCAR-5 ovarian = tested on: OVCAR-5 ovarian
NCI-H23 lung = tested on: NCI-H23 lung
SK-MEL-28 melanoma = tested on: SK-MEL-28 melanoma
T-47D breast = tested on: T-47D breast
SK-OV-3 ovarian = tested on: SK-OV-3 ovarian
K-562 leukemia = tested on: K-562 leukemia
SW-620 colon = tested on: SW-620 colon
RPMI-8226 leukemia = tested on: RPMI-8226 leukemia
OVCAR-8 ovarian = tested on: OVCAR-8 ovarian
SK-MEL-5 melanoma = tested on: SK-MEL-5 melanoma
HOP-92 NSCLC = tested on: HOP-92 NSCLC
SNB-19 CNS = tested on: SNB-19 CNS
LOX IMVI melanoma = tested on: LOX IMVI melanoma
DU-145 prostate = tested on: DU-145 prostate
NCI-H522 lung = tested on: NCI-H522 lung

CC12CC[C@@H]3c4cc5c(cc4CC[C@H]3[C@@H]1CCC2O)oc1cc(F)ccc15 (stereo partly specified)
GI50 (SN12C renal): 19 µM | TGI (SN12C renal): 42.5 µM | GI50 (UO-31 renal): 24.3 µM | TGI (UO-31 renal): 68 µM | GI50 (A549 NSCLC): 33.1 µM | TGI (A549 NSCLC): > 100 µM | GI50 (MDA-MB-435): 39.5 µM | TGI (MDA-MB-435): > 100 µM | GI50 (PC-3 prostate): 17.3 µM | TGI (PC-3 prostate): 43.2 µM | GI50 (HT29 colon): 12.5 µM | TGI (HT29 colon): 25 µM | GI50 (MALME-3M melanoma): 20.3 µM | TGI (MALME-3M melanoma): 49.8 µM | TGI (A498 renal): 23.6 µM | GI50 (MOLT-4 leukemia): 16.2 µM | TGI (MOLT-4 leukemia): 40.6 µM | GI50 (SR leukemia): 15.9 µM | TGI (SR leukemia): 31 µM | GI50 (NCI-H226 lung): 14.9 µM | TGI (NCI-H226 lung): 53 µM | GI50 (HS 578T breast): 26.3 µM | TGI (HS 578T breast): 49.6 µM | GI50 (SF-295 CNS): 18.3 µM | TGI (SF-295 CNS): 40.2 µM | GI50 (HCC-2998 colon): 23.2 µM | TGI (HCC-2998 colon): > 100 µM | GI50 (HOP-62 NSCLC): 18.7 µM | TGI (HOP-62 NSCLC): 45.4 µM | GI50 (UACC-257 melanoma): 21.6 µM | TGI (UACC-257 melanoma): 74.8 µM | GI50 (EKVX NSCLC): 15.5 µM | TGI (EKVX NSCLC): 49 µM | GI50 (SNB-75 CNS): 15.5 µM | TGI (SNB-75 CNS): 35.5 µM | GI50 (NCI/ADR-RES ovarian): 18.6 µM | TGI (NCI/ADR-RES ovarian): 55.5 µM | GI50 (CCRF-CEM leukemia): 27.9 µM | TGI (CCRF-CEM leukemia): > 100 µM | GI50 (M14 melanoma): 20.8 µM | TGI (M14 melanoma): 74.1 µM | GI50 (786-0 renal): 16.1 µM | TGI (786-0 renal): 37.4 µM | GI50 (HL-60(TB) leukemia): 7.74 µM | TGI (HL-60(TB) leukemia): 39.2 µM | GI50 (MCF7 breast): 31.7 µM | TGI (MCF7 breast): 82.7 µM | GI50 (HCT-116 colon): 13.9 µM | TGI (HCT-116 colon): 30.6 µM | GI50 (BT-549 breast): 17.7 µM | TGI (BT-549 breast): 39.1 µM | GI50 (HCT-15 colon): 10.8 µM | TGI (HCT-15 colon): 31.8 µM | GI50 (ACHN renal): 15.8 µM | TGI (ACHN renal): 35.4 µM | GI50 (SF-539 CNS): 22.7 µM | TGI (SF-539 CNS): 54.7 µM | GI50 (TK-10 renal): 15.6 µM | TGI (TK-10 renal): 33.9 µM | GI50 (CAKI-1 renal): 16.1 µM | TGI (CAKI-1 renal): 37.4 µM | GI50 (UACC-62 melanoma): 24.4 µM | TGI (UACC-62 melanoma): > 100 µM | GI50 (IGROV1 ovarian): 16.7 µM | TGI (IGROV1 ovarian): 36.9 µM | GI50 (U251 CNS): 14.1 µM | TGI (U251 CNS): 28.6 µM | GI50 (NCI-H460 lung): 15.2 µM | TGI (NCI-H460 lung): 36.3 µM | GI50 (OVCAR-4 ovarian): 17 µM | TGI (OVCAR-4 ovarian): 55.6 µM | GI50 (MDA-MB-231 breast): 14.1 µM | TGI (MDA-MB-231 breast): 34 µM | GI50 (SF-268 CNS): 18.8 µM | TGI (SF-268 CNS): 62.8 µM | GI50 (OVCAR-3 ovarian): 19.1 µM | TGI (OVCAR-3 ovarian): 43.3 µM | GI50 (COLO 205 colon): 17.1 µM | TGI (COLO 205 colon): 36.2 µM | GI50 (KM12 colon): 17.8 µM | TGI (KM12 colon): 45.5 µM | GI50 (OVCAR-5 ovarian): 24.8 µM | TGI (OVCAR-5 ovarian): > 100 µM | GI50 (NCI-H23 lung): 26.1 µM | TGI (NCI-H23 lung): 99.5 µM | GI50 (SK-MEL-28 melanoma): 20.2 µM | TGI (SK-MEL-28 melanoma): 58.8 µM | GI50 (T-47D breast): 12.3 µM | TGI (T-47D breast): 52.6 µM | GI50 (SK-OV-3 ovarian): 21.5 µM | TGI (SK-OV-3 ovarian): 52.1 µM | GI50 (K-562 leukemia): 8.68 µM | TGI (K-562 leukemia): 47.7 µM | GI50 (SW-620 colon): 25.6 µM | TGI (SW-620 colon): 78.9 µM | GI50 (RPMI-8226 leukemia): 14.6 µM | TGI (RPMI-8226 leukemia): > 100 µM | GI50 (OVCAR-8 ovarian): 20 µM | TGI (OVCAR-8 ovarian): 62.6 µM | GI50 (SK-MEL-5 melanoma): 18.8 µM | TGI (SK-MEL-5 melanoma): 36 µM | GI50 (HOP-92 NSCLC): 21.1 µM | TGI (HOP-92 NSCLC): 63 µM | GI50 (SNB-19 CNS): 19 µM | TGI (SNB-19 CNS): 40.9 µM | GI50 (LOX IMVI melanoma): 12.1 µM | TGI (LOX IMVI melanoma): 24.5 µM | GI50 (DU-145 prostate): 17.8 µM | TGI (DU-145 prostate): 31.6 µM | GI50 (NCI-H522 lung): 23.2 µM | TGI (NCI-H522 lung): > 100 µM
